From patent US20100285959A1, “HERBICIDAL MIXTURES” (priority 2006, published 2010)

Experiments:
flint corn (ZEAMI) [1] = assay: Test 12 field trial, preemergence; format: in vivo, Zea mays L. ssp. indurata; details: Cpd 2 or Cpd 1 62 g a.i./ha, Diuron 2000 g a.i./ha
Excerpt: (§1) In early-mid spring season, corn seeds (hybrid ‘Pioneer 3041’) were planted 5 cm deep and sugarcane nodes (variety RB-72.454) were planted 10 cm deep in separate plots in a clay soil having 2.6% organic matter and a pH of 5.6. Plots were 24 m long by 1.5 m wide with rows spaced 80 cm (corn) or 140 cm (sugarcane) apart. Corn seeds were spaced 15 cm apart and sugarcane nodes were spaced 10 cm apart within the rows. At the same time, weed seeds were broadcast over the surface of separate plots without a crop, one weed species per plot. The weed plots were rotary tilled to incorporate the weed seeds to a variety of depths. The field was managed using conventional tillage practices.

common sugarcane (SACOF) = assay: Test 12 field trial, preemergence; format: in vivo, Saccharum officinarum; details: Cpd 2 or Cpd 1 62 g a.i./ha, Diuron 2000 g a.i./ha
Excerpt: as §1

slender amaranth (AMAVI) = assay: Test 12 field trial, preemergence; format: in vivo, Amaranthus viridis; details: Cpd 2 or Cpd 1 62 g a.i./ha, Diuron 2000 g a.i./ha
Excerpt: as §1

common blackjack (BIDPI) [2] = assay: Test 12 field trial, preemergence; format: in vivo, Bidens pilosa; details: Cpd 2 or Cpd 1 62 g a.i./ha, Diuron 2000 g a.i./ha
Excerpt: as §1

[3] = tested on: broadleaf buttonweed (BOILF); assay: Test 12 field trial, preemergence; format: in vivo, Borreria latifolia; details: Cpd 2 or Cpd 1 62 g a.i./ha, Diuron 2000 g a.i./ha
Excerpt: as §1

sicklepod (CASOB) = assay: Test 12 field trial, preemergence; format: in vivo, Cassia obtusifolia; details: Cpd 2 or Cpd 1 62 g a.i./ha, Diuron 2000 g a.i./ha
Excerpt: as §1

[4] = tested on: tropical spiderwort (COMBE); assay: Test 12 field trial, preemergence; format: in vivo, Commelina benghalensis; details: Cpd 2 or Cpd 1 62 g a.i./ha, Diuron 2000 g a.i./ha
Excerpt: as §1

[5] = tested on: Florida beggarweed (DEDTO); assay: Test 12 field trial, preemergence; format: in vivo, Desmodium tortuosum; details: Cpd 2 or Cpd 1 62 g a.i./ha, Diuron 2000 g a.i./ha
Excerpt: as §1

wild poinsettia (EPHHL) = assay: Test 12 field trial, preemergence; format: in vivo, Euphorbia heterophylla; details: Cpd 2 or Cpd 1 62 g a.i./ha, Diuron 2000 g a.i./ha
Excerpt: as §1

[6] = tested on: Ipomoea grandiflora (IPOGF); assay: Test 12 field trial, preemergence; format: in vivo; details: Cpd 2 or Cpd 1 62 g a.i./ha, Diuron 2000 g a.i./ha
Excerpt: as §1

wild spikenard (HPYSU) = assay: Test 12 field trial, preemergence; format: in vivo; details: Cpd 2 or Cpd 1 62 g a.i./ha, Diuron 2000 g a.i./ha
Excerpt: as §1

common purslane (POROL) = assay: Test 12 field trial, preemergence; format: in vivo, Portulaca oleracea; details: Cpd 2 or Cpd 1 62 g a.i./ha, Diuron 2000 g a.i./ha
Excerpt: as §1

arrowleaf sida (SIDRH) [7] = assay: Test 12 field trial, preemergence; format: in vivo, Sida rhombifolia; details: Cpd 2 or Cpd 1 62 g a.i./ha, Diuron 2000 g a.i./ha
Excerpt: as §1

[8] = tested on: Italian cocklebur (XANSI); assay: Test 12 field trial, preemergence; format: in vivo, Xanthium strumarium ssp. italicum; details: Cpd 2 or Cpd 1 62 g a.i./ha, Diuron 2000 g a.i./ha
Excerpt: as §1

flint corn (ZEAMI) [9] = assay: Test 11 field trial, preemergence; format: in vivo, Zea mays L. ssp. indurata; parameters: scale not given here; details: atrazine 1500 or metolachlor 2500 g a.i./ha alone
Excerpt: (§2) Corn seeds (hybrid ‘Pioneer 3041’) were planted in mid spring season, 5 cm deep in a clay soil having 2.6% organic matter and a pH of 5.6. Plots were 8 m long by 1.5 m wide with rows spaced 80 cm apart. Seeds were spaced 15 cm apart within the rows. The field was managed using conventional tillage practices. […] Treatments consisted of Compound 2 or
(§3) Goosegrass was not evaluated 16 or 91 days after application.

common blackjack (BIDPI) [10] = assay: Test 11 field trial, preemergence; format: in vivo, Bidens pilosa; parameters: scale not given here; details: atrazine 1500 or metolachlor 2500 g a.i./ha alone
Excerpt: as §2, §3

Surinam grass (BRADC) = assay: Test 11 field trial, preemergence; format: in vivo, Brachiaria decumbens; parameters: scale not given here; details: atrazine 1500 or metolachlor 2500 g a.i./ha alone
Excerpt: as §2, §3

alexandergrass (BRAPL) = assay: Test 11 field trial, preemergence; format: in vivo, Brachiaria plantaginea; parameters: scale not given here; details: atrazine 1500 or metolachlor 2500 g a.i./ha alone
Excerpt: as §2, §3

southern sandbur (CCHEC) = assay: Test 11 field trial, preemergence; format: in vivo, Cenchrus echinatus; parameters: scale not given here; details: atrazine 1500 or metolachlor 2500 g a.i./ha alone
Excerpt: as §2, §3

[11] = tested on: tropical spiderwort (COMBE); assay: Test 11 field trial, preemergence; format: in vivo, Commelina benghalensis; parameters: scale not given here; details: atrazine 1500 or metolachlor 2500 g a.i./ha alone
Excerpt: as §2, §3

[12] = tested on: Brazilian crabgrass (DIGHO); assay: Test 11 field trial, preemergence; format: in vivo, Digitaria horizontalis; parameters: scale not given here; details: atrazine 1500 or metolachlor 2500 g a.i./ha alone
Excerpt: as §2, §3

goosegrass (ELEIN) = assay: Test 11 field trial, preemergence; format: in vivo, Eleusine indica
Excerpt: as §2, §3

[13] = tested on: Ipomoea grandiflora (IPOGF); assay: Test 11 field trial, preemergence; format: in vivo
Excerpt: as §2, §3

arrowleaf sida (SIDRH) [14] = assay: Test 11 field trial, preemergence; format: in vivo, Sida rhombifolia
Excerpt: as §2, §3

[15] = 30 DAA, atrazine 1500 or metolachlor 2500 g a.i./ha alone
[16] = 44 DAA, 2500 g a.i./ha, scale 0 to 100
[17] = 62 DAA, 2500 g a.i./ha, scale 0 to 100
[18] = 16 DAA, atrazine 1500 or metolachlor 2500 g a.i./ha alone
[19] = 91 DAA, 2500 g a.i./ha, scale 0 to 100

CN(C)C(=O)Nc1ccc(Cl)c(Cl)c1 [Diuron]
ZEAMI Obs (flint corn (ZEAMI) [1]; 15 DAA): 20%
ZEAMI Obs (flint corn (ZEAMI) [1]; 29 DAA): 20%
ZEAMI Obs (flint corn (ZEAMI) [1]; 48 DAA): 20%
ZEAMI Obs (flint corn (ZEAMI) [1]; 61 DAA): 25%
SACOF Obs (common sugarcane (SACOF); 15 DAA): 0
SACOF Obs (common sugarcane (SACOF); 29 DAA): 0
SACOF Obs (common sugarcane (SACOF); 48 DAA): 0
SACOF Obs (common sugarcane (SACOF); 61 DAA): 5
AMAVI Obs (slender amaranth (AMAVI); 15 DAA): 100
AMAVI Obs (slender amaranth (AMAVI); 29 DAA): 100
AMAVI Obs (slender amaranth (AMAVI); 48 DAA): 100
AMAVI Obs (slender amaranth (AMAVI); 61 DAA): 100
BIDPI Obs (common blackjack (BIDPI) [2]; 15 DAA): 100
BIDPI Obs (common blackjack (BIDPI) [2]; 29 DAA): 100
BIDPI Obs (common blackjack (BIDPI) [2]; 48 DAA): 100
BIDPI Obs (common blackjack (BIDPI) [2]; 61 DAA): 100
BOILF Obs ([3]; 15 DAA): 99
BOILF Obs ([3]; 29 DAA): 100
BOILF Obs ([3]; 48 DAA): 100
BOILF Obs ([3]; 61 DAA): 95
CASOB Obs (sicklepod (CASOB); 15 DAA): 90
CASOB Obs (sicklepod (CASOB); 29 DAA): 90
CASOB Obs (sicklepod (CASOB); 48 DAA): 60
CASOB Obs (sicklepod (CASOB); 61 DAA): 40
COMBE Obs ([4]; 15 DAA): 99
COMBE Obs ([4]; 29 DAA): 100
COMBE Obs ([4]; 48 DAA): 100
COMBE Obs ([4]; 61 DAA): 100
DEDTO Obs ([5]; 15 DAA): 100
DEDTO Obs ([5]; 29 DAA): 100
DEDTO Obs ([5]; 48 DAA): 100
DEDTO Obs ([5]; 61 DAA): 95
EPHHL Obs (wild poinsettia (EPHHL); 15 DAA): 60
EPHHL Obs (wild poinsettia (EPHHL); 29 DAA): 40
EPHHL Obs (wild poinsettia (EPHHL); 48 DAA): 20
EPHHL Obs (wild poinsettia (EPHHL); 61 DAA): 40
IPOGF Obs ([6]; 15 DAA): 80
IPOGF Obs ([6]; 29 DAA): 80
IPOGF Obs ([6]; 48 DAA): 40
IPOGF Obs ([6]; 61 DAA): 40
HPYSU Obs (wild spikenard (HPYSU); 15 DAA): 75
HPYSU Obs (wild spikenard (HPYSU); 29 DAA): 60
HPYSU Obs (wild spikenard (HPYSU); 48 DAA): 40
HPYSU Obs (wild spikenard (HPYSU); 61 DAA): 20
POROL Obs (common purslane (POROL); 15 DAA): 100
POROL Obs (common purslane (POROL); 29 DAA): 100
POROL Obs (common purslane (POROL); 48 DAA): 100
POROL Obs (common purslane (POROL); 61 DAA): 100
SIDRH Obs (arrowleaf sida (SIDRH) [7]; 15 DAA): 100
SIDRH Obs (arrowleaf sida (SIDRH) [7]; 29 DAA): 100
SIDRH Obs (arrowleaf sida (SIDRH) [7]; 48 DAA): 100
SIDRH Obs (arrowleaf sida (SIDRH) [7]; 61 DAA): 100
XANSI Obs ([8]; 15 DAA): 60
XANSI Obs ([8]; 29 DAA): 40
XANSI Obs ([8]; 48 DAA): 40
XANSI Obs ([8]; 61 DAA): 40

CCc1cccc(C)c1N(C(=O)CCl)C(C)COC (centres unmarked) [Metolachlor]
ZEAMI Obs (flint corn (ZEAMI) [9]; 16 DAA): 30
ZEAMI Obs (flint corn (ZEAMI) [9]; 30 DAA): 20
ZEAMI Obs (flint corn (ZEAMI) [9]; 44 DAA): 25
ZEAMI Obs (flint corn (ZEAMI) [9]; 62 DAA): 20
ZEAMI Obs (flint corn (ZEAMI) [9]; 91 DAA): 20
BIDPI Obs (common blackjack (BIDPI) [10]; 16 DAA): 40
BIDPI Obs (common blackjack (BIDPI) [10]; 30 DAA): 40
BIDPI Obs (common blackjack (BIDPI) [10]; 44 DAA): 40
BIDPI Obs (common blackjack (BIDPI) [10]; 62 DAA): 0
BIDPI Obs (common blackjack (BIDPI) [10]; 91 DAA): 0
BRADC Obs (Surinam grass (BRADC); 16 DAA): 97
BRADC Obs (Surinam grass (BRADC); 30 DAA): 95
BRADC Obs (Surinam grass (BRADC); 44 DAA): 90
BRADC Obs (Surinam grass (BRADC); 62 DAA): 60
BRADC Obs (Surinam grass (BRADC); 91 DAA): 40
BRAPL Obs (alexandergrass (BRAPL); 16 DAA): 97
BRAPL Obs (alexandergrass (BRAPL); 30 DAA): 90
BRAPL Obs (alexandergrass (BRAPL); 44 DAA): 90
BRAPL Obs (alexandergrass (BRAPL); 62 DAA): 60
BRAPL Obs (alexandergrass (BRAPL); 91 DAA): 40
CCHEC Obs (southern sandbur (CCHEC); 16 DAA): 95
CCHEC Obs (southern sandbur (CCHEC); 30 DAA): 97
CCHEC Obs (southern sandbur (CCHEC); 44 DAA): 97
CCHEC Obs (southern sandbur (CCHEC); 62 DAA): 80
CCHEC Obs (southern sandbur (CCHEC); 91 DAA): 100
COMBE Obs ([11]; 16 DAA): 100
COMBE Obs ([11]; 30 DAA): 100
COMBE Obs ([11]; 44 DAA): 100
COMBE Obs ([11]; 62 DAA): 100
COMBE Obs ([11]; 91 DAA): 100
DIGHO Obs ([12]; 16 DAA): 100
DIGHO Obs ([12]; 30 DAA): 100
DIGHO Obs ([12]; 44 DAA): 100
DIGHO Obs ([12]; 62 DAA): 100
DIGHO Obs ([12]; 91 DAA): 95
ELEIN Obs (goosegrass (ELEIN); [15]): 100
ELEIN Obs (goosegrass (ELEIN); [16]): 100
ELEIN Obs (goosegrass (ELEIN); [17]): 100
IPOGF Obs [13, 18]: 70
IPOGF Obs [13, 15]: 60
IPOGF Obs [13, 16]: 40
IPOGF Obs [13, 17]: 40
IPOGF Obs [13, 19]: 40
SIDRH Obs (arrowleaf sida (SIDRH) [14]; [18]): 90
SIDRH Obs (arrowleaf sida (SIDRH) [14]; [15]): 80
SIDRH Obs (arrowleaf sida (SIDRH) [14]; [16]): 60
SIDRH Obs (arrowleaf sida (SIDRH) [14]; [17]): 70
SIDRH Obs (arrowleaf sida (SIDRH) [14]; [19]): 90
